In article PMC4005666 (2014):

Assays:
[1] = tested on: Natural E. coli TPP riboswitch (RNA, riboswitch) GGACUCGGGGUGCCCUUCUGCGUGAAGGCUGAGAAAUACCCGUAUCACCUGAUCUGGAUAAUGCCAGCGUAGGGAAGUUC; assay: ITC; conditions: 100 mM KCl, 10 mM MgCl2; 40 mM Hepes pH 7.5, 303.15 K
[2] = tested on: A1bG (RNA, riboswitch) GGACUCGGGGUGCCCUUCUGCGUGAAGGCUGAGAAAUACCCGUGUCACCUGAUCUGGAUAAUGCCAGCGUAGGGAAGUUC; assay: ITC; conditions: 100 mM KCl, 10 mM MgCl2; 40 mM Hepes pH 7.5, 303.15 K
[3] = tested on: ΔUC (RNA, riboswitch) GGACUCGGGGUGCCCUUCUGCGUGAAGGCUGAGAAAUACCCGUAACCUGAUCUGGAUAAUGCCAGCGUAGGGAAGUUC; assay: ITC; conditions: 100 mM KCl, 10 mM MgCl2; 40 mM Hepes pH 7.5, 303.15 K
[4] = tested on: A1nU (RNA, riboswitch) GGACUCGGGGUGCCCUUCUGCGUGAAGGCUGAGAAAUACCCGUAUCACCUGAUCUGGAUAAUGCCAGCGUAGGGUAGUUC; assay: ITC; conditions: 100 mM KCl, 10 mM MgCl2; 40 mM Hepes pH 7.5, 303.15 K
[5] = tested on: A2bC (RNA, riboswitch) GGACUCGGGGUGCCCUUCUGCGUGAAGGCUGAGAAAUACCCGUAUCCCCUGAUCUGGAUAAUGCCAGCGUAGGGAAGUUC; assay: ITC; conditions: 100 mM KCl, 10 mM MgCl2; 40 mM Hepes pH 7.5, 303.15 K
[6] = tested on: A2bU (RNA, riboswitch) GGACUCGGGGUGCCCUUCUGCGUGAAGGCUGAGAAAUACCCGUAUCUCCUGAUCUGGAUAAUGCCAGCGUAGGGAAGUUC; assay: ITC; conditions: 100 mM KCl, 10 mM MgCl2; 40 mM Hepes pH 7.5, 303.15 K
[7] = tested on: A1nC (RNA, riboswitch) GGACUCGGGGUGCCCUUCUGCGUGAAGGCUGAGAAAUACCCGUAUCACCUGAUCUGGAUAAUGCCAGCGUAGGGCAGUUC; assay: ITC; conditions: 100 mM KCl, 10 mM MgCl2; 40 mM Hepes pH 7.5, 303.15 K; 150 µM TPP titrated into 15 µM RNA
[8] = tested on: Natural E. coli TPP riboswitch (RNA, riboswitch) GGACUCGGGGUGCCCUUCUGCGUGAAGGCUGAGAAAUACCCGUAUCACCUGAUCUGGAUAAUGCCAGCGUAGGGAAGUUC; assay: native gel electrophoresis (mobility increase); conditions: 1 mM Mg2+; 25 mM Tris, 192 mM glycine pH 8.3; 100 µM TPP
[9] = tested on: A1nC (RNA, riboswitch) GGACUCGGGGUGCCCUUCUGCGUGAAGGCUGAGAAAUACCCGUAUCACCUGAUCUGGAUAAUGCCAGCGUAGGGCAGUUC; assay: native gel electrophoresis (mobility increase); conditions: 1 mM Mg2+; 25 mM Tris, 192 mM glycine pH 8.3; 100 µM TPP

**Q.** What does the source list for `Cc1ncc(C[n+]2csc(CCOP(=O)(O)OP(=O)(O)O)c2C)c(N)n1`?
**A.** Kd [1]: 230 ± 20 nM; Kd [2]: 2440 ± 230 nM; Kd [3]: 280 ± 40 nM; Kd [4]: 4070 ± 730 nM; Kd [5]: 850 ± 110 nM; Kd [6]: 550 ± 40 nM; binding [7]: no; binding [8]: yes; binding [9]: no
